Results from US9163042B2, “Prodrugs of pyridone amides useful as modulators of sodium channels” (VERTEX PHARMACEUTICALS INCORPORATED, priority 2013, dated 2015).
Where two headings read alike, the source gives them in different places.

Columns and labels:
human Nav1.8 = human Nav1.8 (Homo sapiens (Human), UniProt Q9Y5Y9); assay: E-VIPR optical membrane potential assay with electrical stimulation (NaV1.8 IC50 activity); assay type: cell-based
Excerpt: Sodium channels are voltage-dependent proteins that can be activated by inducing membrane voltage changes by applying electric fields. The electrical stimulation instrument and methods of use are described in Ion Channel Assay Methods PCT/US01/21652, herein incorporated by reference and are referred to as E-VIPR. The instrument comprises a microtiter plate handler, an optical system for exciting the coumarin dye while simultaneously recording the coumarin and oxonol emissions, a waveform generator, a current- or voltage-controlled amplifier, and a device for inserting electrodes in well. Under integrated computer control, this instrument passes user-programmed electrical stimulus protocols to cells within the wells of the microtiter plate.
24 hours before the assay on E-VIPR, HEK cells expressing human Nav1.8 were seeded in 384-well poly-lysine coated plates at 15,000-20,000 cells per well. […] Cells were grown in vented cap flasks, in 90% humidity and 5% CO2.
1) Pre-spotted compounds (in neat DMSO) into compound plates. […] Final compound plate volume was 80 μL (80-fold intermediate dilution from 1 μL DMSO spot; 160-fold final dilution after transfer to cell plate).
2) Prepared Hexyl Dye Solution.
3) Prepared cell plates. On the day of the assay, medium was aspirated and cells were washed three times with 100 μL of Bath1 Solution, maintaining 25 μL residual volume in each well.
4) Dispensed 25 μL per well of Hexyl Dye Solution into cell plates. Incubated for 20-35 minutes at room temp or ambient conditions.
5) Dispensed 80 μL per well of Bath1 into compound plates. Acid Yellow-17 (1 mM) was added and Potassium Chloride was altered from 4.5 to 20 mM depending on the NaV subtype and assay sensitivity.
6) Washed cell plates three times with 100 μL per well of Bath1, leaving 25 μL of residual volume. […] Incubated for 20-35 minutes at room temp/ambient condition.
7) Read Plate on E-VIPR. […] A pre-stimulus recording was performed for 0.5 seconds to obtain the un-stimulated intensities baseline. The stimulatory waveform was followed by 0.5 seconds of post-stimulation recording to examine the relaxation to the resting state.
Data was analyzed and reported as normalized ratios of emission intensities measured in the 460 nm and 580 nm channels. The response as a function of time was reported as the ratios obtained using the following formula: […]
The data was further reduced by calculating the initial (Ri) and final (Rf) ratios. These were the average ratio values during part or all of the pre-stimulation period, and during sample points during the stimulation period. The response to the stimulus R=Rf/Ri was then calculated and reported as a function of time.
Control responses were obtained by performing assays in the presence of a compound with the desired properties (positive control), such as tetracaine, and in the absence of pharmacological agents (negative control). Responses to the negative (N) and positive (P) controls were calculated as above.

Aqueous solubility study = assay type: physicochemical; conditions: thermodynamic from solid
Method: The aqueous solubility of compound 9 and 9a were determined according to the following procedure. Solubility data was determined at ambient conditions by equilibrating the compound with water on a shaking bed for 24 hours, followed by centrifugation and separation of the saturated solutions. The pH value of each media was measured before centrifugation, and the saturated solutions were assayed by HPLC.

[1] = Monkey oral pharmacokinetic study; assay type: in vivo, cynomolgus monkeys
Method: (§1) Sample Analysis. […] Before extraction, plasma samples were diluted using blank plasma at an appropriate dilution factor, as necessary, depending on the dose level. […] After centrifugation, the supernatant extract (10 μL) was injected onto the LC/MS/MS system. The HPLC system included a Phenomenex Synergy Kinetix C8 column, 2.6 micron, 2.0 mm diameter×75 mm long eluted with a gradient mobile phase consisting of 0.1% formic acid in water or in acetonitrile.
(§2) The analytes were detected by MS/MS with Electrospray Ionization (ESI) in the mode of multiple reaction monitoring (MRM). […] The intra-day and inter-day assay accuracy was within 20% of the nominal values. The intra- and inter-day assay variability was ≦20%.
(§3) Pharmacokinetic Data Analysis.
(§4) Key pharmacokinetic parameters such as AUCall, AUCextra, Cmax, tmax, Cl, Vss and t1/2 were determined.
(§5) Statistical Data Analysis. Descriptive statistical data of pharmacokinetic parameters were calculated, including the mean, standard deviation (SD), using Watson LIMS version 7.4 SP3 or Microsoft Excel 2000.
Male or female cynomolgus monkeys (n=3 per dose group) were administered single nominal PO doses of 10, 40, 100, 300, 500, 750 and 1000 mg/kg of compound 9 by gavage. Compound 9 was formulated in 30% PEG400 and 10% TPGS in water or 5% TPGS, 5% PVP-K30 in 50 mM Citrate, pH 5. […]

[2] = Rat oral pharmacokinetic study; assay type: in vivo, Sprague Dawley rats
Method: as §1, §2, §3, §4, §5
Groups of male and female Sprague Dawley rats (n=3 per dose group) were administered single nominal oral doses of 10, 100, 400, 640, 1000 mg/kg (for males) and 30, 100, 300, 640, 1000 mg/kg (for females) of compound 9 by gavage. Compound 9 was formulated in either 30% PEG400 and 10% TPGS in water or 5% TPGS, 5% PVP-K30 in 50 mM Citrate, pH 5. Animals had free access to food and water before and after dosing. Blood samples (approximately 0.25 mL each) were collected via a carotid artery catheter prior to dosing and at 0.25, 0.5, 1, 2, 4, 8, 12, 24, 48 and 72 hours post dose. Each blood sample was collected into a tube that was kept on wet ice and contained potassium EDTA as the anticoagulant. Plasma was separated and stored at approximately −70° C. until analysis.

[3] = Rat IV pharmacokinetic study; assay type: in vivo, Sprague Dawley rats; conditions: rat, single IV bolus 1 mg/kg of compound 9; LLOQ 2.5 ng/mL
Method: as §1, §2, §3, §4, §5
Male Sprague Dawley rats (n=3) were administered a single nominal IV bolus dose of 1 mg/kg of compound 9 via a jugular vein cannula. […] Animals had free access to food and water before and after dosing. Blood samples (approximately 0.25 mL each) were collected via a carotid artery catheter prior to dosing and at 5 min, 10 min, 0.25, 0.5, 1, 2, 4, 8, 12, 24 hours post dose. Each blood sample was collected into a tube that was kept on wet ice and contained potassium EDTA as the anticoagulant. Plasma was separated and stored at approximately −70° C. until analysis.
Plasma concentration vs. time data were subjected to noncompartmental pharmacokinetic (PK) analysis.

Chain of human Nav1.8 (Q9Y5Y9 whole entry): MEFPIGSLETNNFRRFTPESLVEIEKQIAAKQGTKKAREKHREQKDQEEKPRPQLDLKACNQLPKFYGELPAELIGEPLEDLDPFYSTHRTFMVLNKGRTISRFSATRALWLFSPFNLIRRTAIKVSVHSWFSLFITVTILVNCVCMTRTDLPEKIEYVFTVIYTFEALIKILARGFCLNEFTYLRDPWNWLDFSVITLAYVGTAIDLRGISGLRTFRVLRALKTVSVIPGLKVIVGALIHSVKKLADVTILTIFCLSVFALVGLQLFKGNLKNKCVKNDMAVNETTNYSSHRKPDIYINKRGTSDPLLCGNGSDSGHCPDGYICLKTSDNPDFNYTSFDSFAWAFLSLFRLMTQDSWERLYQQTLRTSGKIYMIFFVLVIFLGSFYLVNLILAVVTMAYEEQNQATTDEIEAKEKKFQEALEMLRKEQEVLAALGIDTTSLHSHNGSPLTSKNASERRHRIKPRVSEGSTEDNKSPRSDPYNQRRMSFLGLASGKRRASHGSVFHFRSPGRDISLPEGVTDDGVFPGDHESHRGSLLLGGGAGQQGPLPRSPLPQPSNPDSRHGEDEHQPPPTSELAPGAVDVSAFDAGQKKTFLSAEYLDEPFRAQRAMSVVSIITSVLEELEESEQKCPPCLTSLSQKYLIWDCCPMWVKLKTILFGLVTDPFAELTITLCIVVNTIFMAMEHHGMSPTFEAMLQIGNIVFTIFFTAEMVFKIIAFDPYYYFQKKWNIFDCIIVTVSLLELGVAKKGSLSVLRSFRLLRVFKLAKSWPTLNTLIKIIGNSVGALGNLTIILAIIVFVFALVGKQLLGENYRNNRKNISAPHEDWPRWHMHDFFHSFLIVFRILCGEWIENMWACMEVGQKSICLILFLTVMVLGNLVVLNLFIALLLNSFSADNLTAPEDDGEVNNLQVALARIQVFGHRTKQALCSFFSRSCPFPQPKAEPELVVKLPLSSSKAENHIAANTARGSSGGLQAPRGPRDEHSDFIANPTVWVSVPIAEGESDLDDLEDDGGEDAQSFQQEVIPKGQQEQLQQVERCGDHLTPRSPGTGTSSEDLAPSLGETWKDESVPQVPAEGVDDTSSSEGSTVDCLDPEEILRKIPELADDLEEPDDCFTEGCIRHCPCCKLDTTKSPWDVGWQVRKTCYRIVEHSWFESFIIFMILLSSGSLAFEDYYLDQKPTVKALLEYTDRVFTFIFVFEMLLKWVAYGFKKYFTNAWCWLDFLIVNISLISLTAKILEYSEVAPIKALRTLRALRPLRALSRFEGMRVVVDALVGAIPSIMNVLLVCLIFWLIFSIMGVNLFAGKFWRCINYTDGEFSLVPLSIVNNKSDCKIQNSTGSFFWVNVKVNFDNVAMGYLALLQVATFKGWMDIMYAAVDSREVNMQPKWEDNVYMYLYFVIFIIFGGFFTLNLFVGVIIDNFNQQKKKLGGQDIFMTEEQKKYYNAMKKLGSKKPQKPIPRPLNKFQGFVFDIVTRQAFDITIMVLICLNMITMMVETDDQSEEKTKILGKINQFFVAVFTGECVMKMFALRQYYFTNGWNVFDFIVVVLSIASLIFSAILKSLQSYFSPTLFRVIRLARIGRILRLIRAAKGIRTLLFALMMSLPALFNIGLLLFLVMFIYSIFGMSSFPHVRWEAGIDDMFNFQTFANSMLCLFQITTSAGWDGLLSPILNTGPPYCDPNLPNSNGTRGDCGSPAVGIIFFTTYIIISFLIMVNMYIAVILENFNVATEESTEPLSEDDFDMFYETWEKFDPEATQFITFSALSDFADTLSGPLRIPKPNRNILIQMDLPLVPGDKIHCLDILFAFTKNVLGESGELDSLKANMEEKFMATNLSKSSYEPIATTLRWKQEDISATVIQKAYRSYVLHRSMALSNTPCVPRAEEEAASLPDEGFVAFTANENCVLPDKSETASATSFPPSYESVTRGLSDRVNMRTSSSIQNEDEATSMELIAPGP

Compound: Cc1cc(F)ccc1Oc1cc(C(F)(F)F)ccc1C(=O)Nc1ccn(COP(=O)(O)O)c(=O)c1 [Compound 9, (4-(2-(4-fluoro-2-methylphenoxy)-4-(trifluoromethyl)benzamido)-2-oxopyridin-1(2H)-yl)methyl dihydrogen phosphate]
- IC50 (human Nav1.8): 330 nM
- solubility at 24 h (Aqueous solubility study; aqueous medium, aqueous buffer, pH 3, crystalline, ambient conditions, 24 hours, read-out: Solubility): 110 µg/mL
- solubility at 24 h (Aqueous solubility study; aqueous medium, aqueous buffer, pH 3.3, crystalline, ambient conditions, 24 hours, read-out: Solubility): 240 µg/mL
- solubility at 24 h (Aqueous solubility study; aqueous medium, aqueous buffer, pH 5, crystalline, ambient conditions, 24 hours, read-out: Solubility): 420 µg/mL
- solubility at 24 h (Aqueous solubility study; aqueous medium, aqueous buffer, pH 7, crystalline, ambient conditions, 24 hours, read-out: Solubility): 500 µg/mL
- solubility at 24 h (Aqueous solubility study; aqueous medium, aqueous buffer, pH 8, crystalline, ambient conditions, 24 hours, read-out: Solubility): 2240 µg/mL
- solubility at 24 h (Aqueous solubility study; aqueous medium, simulated gastric fluid, pH 1, crystalline, ambient conditions, 24 hours, read-out: Solubility): 2 µg/mL
- solubility at 24 h (Aqueous solubility study; water, read-out: aqueous solubility in water): ~300 µg/mL
- plasma concentrations of compound 9 ([1]; monkey, single PO doses 10-1000 mg/kg of compound 9, LLOQ 10.0 to 25.0 ng/mL): below LLOQ for the majority of the samples
- in vivo conversion of prodrug into parent compound ([1]; monkeys): converted in vivo into compound 9a
- plasma concentrations of compound 9 ([2]; rat, single oral doses 10-1000 mg/kg of compound 9, LLOQ 2.5 to 25 ng/mL): below LLOQ for the majority of the samples
- in vivo conversion of prodrug into parent compound ([2]; rats): converted in vivo into compound 9a
- plasma concentrations of compound 9 [3]: below LLOQ for the majority of the samples
